Laboratory results from patent US8017828B2, “Utilization of rare sugars in plant or microorganism” (Shikoku Research Institute Incorporated, priority 2004, dated 2011).

Tests used:
Bletilla striata = test: Growth and bulb formation of Bletilla striata seedlings in tissue culture; assay type: in vivo
Method: Seedling plants of Bletilla striata obtained by sterile sowing were used in an experiment.
As for the Bletilla striata, by using ½ strength MS medium supplemented with D-psicose, D-allose, D-glucose or D-frucose at a concentration of from 0.005% to 0.05% (w/v), the seedling plants were aseptically transplanted on Feb. 27, 2003, and then, cultivation was carried out under the same conditions as those of the strawberry in Example 3. Then, on Jun. 30, 2003, a survey was carried out with regard to the growth conditions of aerial part and underground part, the number of buds, the ratio of bulb formation, the bulb size and the like.

[1] = tested on: Brassica rapa var. amplexicaulis (variety: “Haru Ichiban”); test: Foliar spraying of sugar on Brassica rapa var. amplexicaulis; assay type: in vivo; settings: 0.5% solution sprayed; for Terminal bud weight: control (water) 3.0; for Stem diameter: control (water) 22.8; for Number of lateral buds: control (water) 32.3; for Plant length: control (water) 49.3; for Total weight of lateral buds: control (water) 235.3
Excerpt: Brassica rapa var. amplexicaulis is a vegetable in the Brassica family, and flower buds are harvested and used. As the same species of vegetables, broccoli, cauliflower and the like are exemplified, which are important horticultural crops. As for such a vegetable, development of flower buds has a large effect on the crop yield. Therefore, during the house cultivation of Brassica rapa var. amplexicaulis (variety: “Haru Ichiban”), foliar spraying of a sugar solution at a concentration of 0.5% (w/v) was carried out and effects on the growth and the development of flower buds were examined. The seeds of Brassica rapa var. amplexicaulis were sown in a 128-cell tray on Oct. 23, 2003 and raised for about 20 days. Then, the raised seedlings were transplanted for permanent planting with a planting distance of 40 cm on two rows with an inter row space of 50 cm in separate beds filled with soil for cultivation “Hana to Yasai no Tsuchi (garden soil for flowers and vegetables)” (Kurokawa Shubyo En) on Nov. 12, 2003. The cultivation was carried out by a simple fertigation system, and irrigation was carried out for 1 hour on a daily basis with a 2,000-fold dilution of Hyponex through an irrigation tube. The cultivation was carried out in a vinyl house without heating with side windows open. From Dec. 18, 2003, water or a 0.5% (w/v) sugar solution was sprayed onto the whole plant on a three times weekly basis. As for the types of sugars, D-glucose, D-fructose and D-psicose were used and five plants were cultivated for each test plot. On Feb. 23, 2004, three plants of medium size were harvested and a survey was carried out. The survey items were plant length, stem diameter, number of lateral buds, terminal bud weight, total weight of lateral buds and the like.

[2] = tested on: Pythium ultimum IFO 32426 strain; test: Oospore formation of Pythium ultimum in sugar solution; assay type: cell-based; settings: 0.05% (w/v) sugar solution, 23° C., 4 days
Method: With regard to Pythium ultimum that causes damping-off of spinach and the like, an effect of a rare sugar on oospore formation was examined.
First, as the Pythium ultimum, IFO 32426 strain was used, and static culture thereof was carried out with 200 ml of V8 medium at 23° C. for 1 week. The resulting mycelial mat was well washed with sterile water and divided into 16 equal parts with forceps. This mycerial body was disentangled uniformly to form a small piece and immersed in 20 ml of a sugar solution at a concentration of 0.05% (w/v) and let stand at 23° C. for 4 days. […] Further, the same experiment was carried out using Pythium zingiberum IFO 30817 strain.

[3] = tested on: rice plant (variety: “Hinohikari”); test: Foliar spraying of sugar on pot-grown rice; assay type: in vivo
Method: After seeds of a rice plant (variety: “Hinohikari”) were put in a nylon net and subjected to sterilization and a germination induction treatment in a growth chamber at 30° C. for 2 days while they were soaked in 0.1% (w/v) Benlate (Hokko Chemical Industry Co., Ltd.) in accordance with a common method, they were sown in a nursery tray filled with “Kumiai Ryujou Baido SD” (Kureha Chemical Industry Co., Ltd.) and raised in a phytotron (day temperature: 25° C. and night temperature: 18° C.) for about 2 weeks. Then, Wagner pots with a size of 1/5,000a were filled with “Kumiai Ryujou Baido SD” (Kureha Chemical Industry Co., Ltd.) and the raised rice seedlings were transplanted for permanent planting to the pots and the cultivation was started on Jul. 2, 2003 in the open air under the condition that the soil was covered with water in the pots. From Jul. 16, 2003, when the seedlings were confirmed to take root, water, a 0.02% (w/v) sugar solution, a 0.1% (w/v) sugar solution or a 0.5% (w/v) sugar solution was sprayed onto the whole plant on a three times weekly basis. As for the types of sugars, D-glucose, D-fructose and D-psicose were used and three pots were cultivated for each test plot. The cultivation was continued in such a manner that the water in pots was not dried up and after 5 g of Magamp K medium (HYPONeX JAPAN CORP., Ltd.) per pot was added as additional fertilization on Aug. 29, 2003, and the harvest and survey were carried out on Sep. 22, 2003. The survey items were plant length, number of tillers, leaf weight, husk weight, underground part weight and the like.

In the case of `O=C[C@H](O)[C@H](O)[C@H](O)[C@H](O)CO` [D-allose], the “growth when the concentration added to the medium was increased” value (Bletilla striata; increased (high) concentration in medium) was “the growth thereof was delayed”, the Aerial part weight (Bletilla striata; sugar 0.005% in medium) was 0.19 g and the Bulb size (Bletilla striata; sugar 0.005% in medium) was 4.5 mm. For the same compound, the Maximum plant length (Bletilla striata; sugar 0.005% in medium) was 7.6 cm, the Maximum root length (Bletilla striata; sugar 0.005% in medium) was 4.2 cm and the Number of buds (Bletilla striata; sugar 0.005% in medium) was 3.4. For the same compound, the Number of leaves (Bletilla striata; sugar 0.005% in medium) was 4.2, the “Ratio of bulb formation” value (Bletilla striata; sugar 0.005% in medium) was 84% and the Underground part weight (Bletilla striata; sugar 0.005% in medium) was 0.10 g. For the same compound, the Aerial part weight (Bletilla striata; sugar 0.02% in medium) was 0.19 g, the Bulb size (Bletilla striata; sugar 0.02% in medium) was 4.2 mm and the Maximum plant length (Bletilla striata; sugar 0.02% in medium) was 7.5 cm. For the same compound, the Maximum root length (Bletilla striata; sugar 0.02% in medium) was 4.1 cm, the Number of buds (Bletilla striata; sugar 0.02% in medium) was 3.6 and the Number of leaves (Bletilla striata; sugar 0.02% in medium) was 3.9. For the same compound, the “Ratio of bulb formation” value (Bletilla striata; sugar 0.02% in medium) was 85%, the Underground part weight (Bletilla striata; sugar 0.02% in medium) was 0.12 g and the Aerial part weight (Bletilla striata; sugar 0.05% in medium) was 0.25 g. For the same compound, the Bulb size (Bletilla striata; sugar 0.05% in medium) was 4.9 mm, the Maximum plant length (Bletilla striata; sugar 0.05% in medium) was 7.7 cm and the Maximum root length (Bletilla striata; sugar 0.05% in medium) was 4.2 cm. For the same compound, the Number of buds (Bletilla striata; sugar 0.05% in medium) was 2.7, the Number of leaves (Bletilla striata; sugar 0.05% in medium) was 4.3 and the “Ratio of bulb formation” value (Bletilla striata; sugar 0.05% in medium) was 85%. The Underground part weight (Bletilla striata; sugar 0.05% in medium) was 0.12 g, the Terminal bud weight [1] was 7.9 g and the Stem diameter [1] was 23.6 mm. The “Number of lateral buds” value [1] was 38.0, the Plant length [1] was 60.7 cm and the “Total weight of lateral buds” value [1] was 222.5 g. For the same compound, the oospore formation [2] was “not observed at all”.
`O=C(CO)[C@@H](O)[C@H](O)[C@H](O)CO` [D-fructose, reference compound] was tested, and the Aerial part weight (Bletilla striata; sugar 0.005% in medium) was 0.16 g, the Bulb size (Bletilla striata; sugar 0.005% in medium) was 5.2 mm and the Maximum plant length (Bletilla striata; sugar 0.005% in medium) was 6.5 cm. It also gave a Maximum root length (Bletilla striata; sugar 0.005% in medium) of 4.6 cm, a Number of buds (Bletilla striata; sugar 0.005% in medium) of 3.7 and a Number of leaves (Bletilla striata; sugar 0.005% in medium) of 3.5. The “Ratio of bulb formation” value (Bletilla striata; sugar 0.005% in medium) was 44%, the Underground part weight (Bletilla striata; sugar 0.005% in medium) was 0.15 g and the Aerial part weight (Bletilla striata; sugar 0.02% in medium) was 0.19 g. It also gave a Bulb size (Bletilla striata; sugar 0.02% in medium) of 4.5 mm, a Maximum plant length (Bletilla striata; sugar 0.02% in medium) of 6.6 cm and a Maximum root length (Bletilla striata; sugar 0.02% in medium) of 5.1 cm. The Number of buds (Bletilla striata; sugar 0.02% in medium) was 3.3, the Number of leaves (Bletilla striata; sugar 0.02% in medium) was 4.6 and the “Ratio of bulb formation” value (Bletilla striata; sugar 0.02% in medium) was 67%. The Underground part weight (Bletilla striata; sugar 0.02% in medium) was 0.14 g, the Aerial part weight (Bletilla striata; sugar 0.05% in medium) was 0.19 g and the Bulb size (Bletilla striata; sugar 0.05% in medium) was 4.7 mm. For the same compound, the Maximum plant length (Bletilla striata; sugar 0.05% in medium) was 7.3 cm, the Maximum root length (Bletilla striata; sugar 0.05% in medium) was 4.1 cm and the Number of buds (Bletilla striata; sugar 0.05% in medium) was 3.3. The Number of leaves (Bletilla striata; sugar 0.05% in medium) was 4.0, the “Ratio of bulb formation” value (Bletilla striata; sugar 0.05% in medium) was 69% and the Underground part weight (Bletilla striata; sugar 0.05% in medium) was 0.10 g. For the same compound, the Dry husk weight ([3]; 0.02% sugar solution sprayed) was 16.8 g, the Dry leaf weight ([3]; 0.02% sugar solution sprayed) was 43.3 g and the Number of tillers ([3]; 0.02% sugar solution sprayed) was 29.3. It also gave a Plant length ([3]; 0.02% sugar solution sprayed) of 85.7 cm, a Dry husk weight ([3]; 0.10% sugar solution sprayed) of 16.1 g and a Dry leaf weight ([3]; 0.10% sugar solution sprayed) of 41.0 g. It also gave a Number of tillers ([3]; 0.10% sugar solution sprayed) of 29.3, a Plant length ([3]; 0.10% sugar solution sprayed) of 84.3 cm and a Dry husk weight ([3]; 0.50% sugar solution sprayed) of 17.2 g. The Dry leaf weight ([3]; 0.50% sugar solution sprayed) was 36.4 g, the Number of tillers ([3]; 0.50% sugar solution sprayed) was 27.0 and the Plant length ([3]; 0.50% sugar solution sprayed) was 85.7 cm. The Terminal bud weight [1] was 7.4 g, the Stem diameter [1] was 19.9 mm and the “Number of lateral buds” value [1] was 41.3. For the same compound, the Plant length [1] was 55.8 cm, the “Total weight of lateral buds” value [1] was 231.1 g and the oospore formation [2] was “no effect”.
